Data reported in US11571423B2, “Small molecule modulators of human sting” (Curadev Pharma Limited, priority 2017, dated 2023).
pEC50: −log10 of the molar value.

Experiments:
NF-κB pathway = assay: Reporter gene expression assay in THP1-Dual cells, NFkB axis (secreted SEAP); type: cell-based, human; conditions: Homo sapiens, 20 hr stimulation, EC50 range class, read-out: THP-NFκB activity
Procedure, shortened: (§1)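 Human THP-1 monocyte-derived cells with two inducible reporters: 5×10^5 cells seeded and stimulated with compounds for 20 hr. SEAP (QUANTI-Blue) and Lucia luciferase (QUANTI-Luc) measured in supernatant; EC50 values reported as ranges.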

[1] = molecular target: cynomolgus monkey STING protein (Macaca fascicularis, UniProt A0A2R3XZA6); assay: Luciferase reporter assay, cynomolgus monkey STING overexpressed in HEK293T cells; type: cell-based; conditions: cynomolgus monkey STING overexpressed in HEK293T cells; read-out: Cynomolgus monkey STING activity (EC50 range)
Chain of cynomolgus monkey STING protein (A0A2R3XZA6 entry or part of it): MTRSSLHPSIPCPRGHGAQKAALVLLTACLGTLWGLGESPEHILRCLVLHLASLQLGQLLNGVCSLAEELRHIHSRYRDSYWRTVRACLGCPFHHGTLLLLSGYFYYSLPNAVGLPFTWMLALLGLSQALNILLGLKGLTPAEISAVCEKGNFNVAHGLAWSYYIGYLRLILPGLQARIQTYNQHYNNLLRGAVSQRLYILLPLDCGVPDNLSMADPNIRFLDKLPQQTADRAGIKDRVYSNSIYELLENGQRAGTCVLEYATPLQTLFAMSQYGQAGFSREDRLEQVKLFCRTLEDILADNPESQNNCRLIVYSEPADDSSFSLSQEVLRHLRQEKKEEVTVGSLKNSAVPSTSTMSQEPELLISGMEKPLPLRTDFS
Procedure, shortened: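 HEK293T cells overexpressing cynomolgus STING with a secreted luciferase reporter were stimulated with compound for 20 hr. Supernatant reporter activity was then measured by Quanti-Luc luminescence, and EC50 values were derived.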

IRF pathway = assay: Reporter gene expression assay in THP1-Dual cells, IRF axis (secreted Lucia luciferase); type: cell-based, human; conditions: Homo sapiens, 20 hr stimulation, EC50 range class, read-out: THP-IRF activity
Procedure, shortened: as §1

hSTING(HAQ) = hSTING(HAQ) (Homo sapiens, UniProt Q86WV6, G230A/H232R/R293Q/R71H); assay: Luciferase reporter assay in HEK293T-hSTING-Luciferase cells, HAQ polymorph; type: cell-based; conditions: HAQ polymorph of human STING, EC50 range class
Chain of hSTING(HAQ) (Q86WV6 whole entry R71H/G230A/H232R/R293Q): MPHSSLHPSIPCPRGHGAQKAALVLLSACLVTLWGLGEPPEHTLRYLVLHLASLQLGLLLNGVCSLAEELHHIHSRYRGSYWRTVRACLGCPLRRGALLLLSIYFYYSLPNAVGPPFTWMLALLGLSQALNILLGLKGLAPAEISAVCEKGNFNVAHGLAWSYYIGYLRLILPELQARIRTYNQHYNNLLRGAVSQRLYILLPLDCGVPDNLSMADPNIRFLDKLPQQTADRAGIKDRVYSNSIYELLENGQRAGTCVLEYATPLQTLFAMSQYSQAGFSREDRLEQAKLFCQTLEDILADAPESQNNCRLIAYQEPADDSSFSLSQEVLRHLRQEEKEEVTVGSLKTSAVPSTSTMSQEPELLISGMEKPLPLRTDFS
Procedure, shortened: (§2)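 HEK293T cells stably co-express the hSTING variant (hEF1-HTLV promoter) and an ISRE/ISG54 IRF-inducible luciferase reporter. Clones with minimal ligand-independent activation were used. Cells were stimulated with compounds for 20 hr, and secreted luciferase in the supernatant was read by luminescence to give EC50.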

hSTING(R232) = hSTING(R232) (Homo sapiens, UniProt Q86WV6, H232R); assay: Luciferase reporter assay in HEK293T-hSTING-Luciferase cells, R232 (wild type) human STING; type: cell-based; conditions: 20 hr stimulation, read-out: R232 human activity (EC50 range)
Chain of hSTING(R232) (Q86WV6 whole entry H232R, the tested form may be a part): as the sequence (Q86WV6 whole entry R71H/G230A/H232R/R293Q) above, with H71R, A230G, Q293R counted along it
Procedure, shortened: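 After 20 hr compound stimulation of 5×10^5 cells, secreted luciferase in the supernatant was measured by luminescence; values are fold-induction over baseline and EC50. The line is a clonal HEK293T stably carrying a STING plasmid (pUNO-1) and a luciferase reporter under five tandem ISREs fused to an ISG54 promoter.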

hSTING(H232) = hSTING(H232) (Homo sapiens, UniProt Q86WV6); assay: Luciferase reporter assay in HEK293T-hSTING-Luciferase cells, H232/REF polymorph; type: cell-based; conditions: H232/REF polymorph of human STING, EC50 range class
Chain of hSTING(H232) (Q86WV6 whole entry): as the sequence (Q86WV6 whole entry R71H/G230A/H232R/R293Q) above, with H71R, A230G, R232H, Q293R counted along it
Procedure, shortened: as §2

pEC50 (NF-κB pathway) | pEC50 [1] | pEC50 (IRF pathway) | pEC50 (hSTING(HAQ)) | pEC50 (hSTING(R232)) | pEC50 (hSTING(H232)) | SMILES
> 6.00 | > 6.00 | > 6.00 | > 6.00 | > 6.00 | > 6.00 | C[C@H]1c2ccc(C(=O)NCc3c(F)cc(F)cc3F)cc2N(Cc2c(F)cc(OC[C@@H](O)CO)cc2F)C(=O)N1C [Example 147, (S)-1-(4-((S)-2,3-Dihydroxypropoxy)-2,6-difluorobenzyl)-3,4-dimethyl-2-oxo-N-(2,4,6-trifluorobenzyl)-1,2,3,4-tetrahydroquinazoline-7-carboxamide]
> 6.00 | > 6.00 | > 6.00 | > 6.00 | > 6.00 | > 6.00 | C[C@H]1c2ccc(C(=O)NCc3c(F)cc(F)cc3F)cc2N(Cc2c(F)cccc2Cl)C(=O)N1C (single isomer, unassigned) [Example 76]
> 6.00 | > 6.00 | > 6.00 | > 6.00 | > 6.00 | > 6.00 | C[C@H]1c2ccc(C(=O)NCc3c(F)cc(F)cc3F)cc2N(Cc2c(F)cncc2Br)C(=O)N1C [Example 232, (S)-1-((3-bromo-5-fluoropyridin-4-yl)methyl)-3,4-dimethyl-2-oxo-N-(2,4,6-trifluorobenzyl)-1,2,3,4-tetrahydroquinazoline-7-carboxamide]
> 6.00 | > 6.00 | > 6.00 | > 6.00 | > 6.00 | > 6.00 | C[C@H]1c2ccc(C(=O)NCc3c(F)cc(F)cc3F)cc2N(Cc2c(F)ccc(N)c2Cl)C(=O)N1C [Example 188, (S)-1-(3-amino-2-chloro-6-fluorobenzyl)-3,4-dimethyl-2-oxo-N-(2,4,6-trifluorobenzyl)-1,2,3,4-tetrahydroquinazoline-7-carboxamide]
> 6.00 | > 6.00 | > 6.00 | > 6.00 | > 6.00 | > 6.00 | Cc1cccc(F)c1CN1C(=O)N(C)C(C)c2ccc(C(=O)NCc3c(F)cc(F)cc3F)cc21 (stereo not drawn) [Example 162, 1-(2-fluoro-6-methylbenzyl)-3,4-dimethyl-2-oxo-N-(2,4,6-trifluorobenzyl)-1,2,3,4-tetrahydroquinazoline-7-carboxamide]
> 6.00 | 5.00 to 6.00 | > 6.00 | > 6.00 | > 6.00 | > 6.00 | C[C@H]1c2ccc(C(=O)NCc3c(F)cc(F)cc3F)cc2N(Cc2cc(OCCCO)cc(F)c2F)C(=O)N1C [Example 283, (S)-1-(2,3-difluoro-5-(3-hydroxypropoxy)benzyl)-3,4-dimethyl-2-oxo-N-(2,4,6-trifluorobenzyl)-1,2,3,4-tetrahydroquinazoline-7-carboxamide]
> 6.00 | > 6.00 | > 6.00 | > 6.00 | > 6.00 | > 6.00 | C[C@H]1c2ccc(C(=O)NCc3c(F)cc(F)cc3F)cc2N(Cc2c(F)ccc(C(N)=O)c2F)C(=O)N1C [Example 141, (S)-1-(3-Carbamoyl-2,6-difluorobenzyl)-3,4-dimethyl-2-oxo-N-(2,4,6-trifluorobenzyl)-1,2,3,4-tetrahydroquinazoline-7-carboxamide]
> 6.00 | > 6.00 | > 6.00 | > 6.00 | > 6.00 | > 6.00 | C[C@H]1c2ccc(C(=O)NCc3c(F)cc(F)cc3F)cc2N(Cc2c(F)cc(O)cc2F)C(=O)N1C [Example 78, (S)-1-(2,6-difluoro-4-hydroxybenzyl)-3,4-dimethyl-2-oxo-N-(2,4,6-trifluorobenzyl)-1,2,3,4-tetrahydroquinazoline-7-carboxamide]
